# Laboratory results from a melting point compilation (Tetko et al.; mined from patent text by program, amines drawn as free bases though some values may be those of a salt).
row,Compound,melting point [°C]
1,CCCCOCCOc1ccc(-c2cnc(N3CC(C)C(C)C3)c(/C=C(\C)C(=O)O)c2)cc1 (stereo not given),90 to 92
2,O=C(O)c1cn(-c2cccs2)c2cc(F)c(F)cc2c1=O,245 to 246
3,Cc1cc(C2=NN(C3=NCCS3)C(C)Cc3cc4c(cc32)OCO4)ccc1[N+](=O)[O-] (stereo not given),130 to 135
4,COc1ccc([N+](=O)[O-])cc1C(C#N)O[Si](C)(C)C (stereo not given),108 to 111
5,CCCCCC(=O)Nc1ccc2nnc(C(=O)OCC)c(O)c2c1,265 to 266
6,O=C(O)c1sc(-c2ccc(C(F)(F)F)cc2)nc1CO,250 to 252
7,NCCCCC(OP(=O)(O)CCCCc1ccccc1)C(=O)N1CCCC1C(=O)O (stereo not given),160 to 175
8,CCCCCCCCCCCCCCc1onc(C(=O)OC)c1O,92
9,CCOC(=O)COc1ccc(CCC(=O)OC)cc1[N+](=O)[O-],70 to 72
10,COc1cc([N+](=O)[O-])ccc1N1CCN(CCCNc2c(C)c(=O)n(C)c(=O)n2C)CC1,131 to 133
11,CCCCn1c(=O)c2cc(C(=O)O)cn2c2cc(Cl)c(Cl)cc21,281 to 283
12,COc1cc(C=CC(=O)c2cc(OC)c(OC)c(OC)c2)cc(C(F)(F)F)c1O,190 to 192
13,COC(=O)c1scc(C)c1NC(=S)N1CCN(c2ncnc3cc(OC)c(OC)cc23)CC1,113 to 116
14,CCCCOCCOc1ccc(-c2ccc3c(c2)C=C(C(=O)Nc2ccc(/C(Cc4nccn4CCC)=N/O)cc2)CCN3CC(C)C)cc1,154
15,CCCCCCCCCCCc1[nH]c2cc(C(=O)OC)ccc2c1C=O,147 to 149
16,O=c1[nH]c(=O)n(C2COC(CO)C2CO)cc1C=CBr (stereo not given),142 to 143
17,COC(=O)c1c2c(c3cc4c(cc3c1-c1ccc(OC)c(OC)c1)OCO4)OCOC2=O,168 to 170
18,N#Cc1ccc(O)c(O)c1O,172
19,Cc1ccsc1C(=O)c1sc(Nc2ccc(S(N)(=O)=O)cc2)nc1N,284 to 286
20,Nc1nc(N)c(CCCNc2ccc(C(=O)N[C@@H](CCC(=O)O)C(=O)O)c(Cl)c2)c(=O)[nH]1,150 to 178
21,FC1(F)N=c2cc3c(cc2=N1)OC(Cl)O3,> 220
22,CC[C@H](O)C(=O)N1CCC(Oc2cc3ncnc(Nc4cccc(Cl)c4F)c3cc2OC)CC1,152 to 153
23,C#CCc1ccc2onc3c2c1OCC=N3,104 to 106

row,Compound,melting point [°C]
1,COc1cc(-c2cccs2)cc(OC)c1C=O,168 to 170
2,C#CCOc1cc([N+](=O)[O-])c(F)cc1Cl,88 to 89
3,CCCOc1cc(Br)ccc1-c1nc2cc3ncn(Cc4ccc(F)cc4)c3cc2c(=O)[nH]1,295 to 297
4,CCNC(=O)ON1C(=O)CCC1=O,131 to 133
5,COc1nc2cc(Cl)c(Cl)c(-n3c(CN(C)C)nnc3-c3cccnc3)c2nc1OC,192 to 194
6,CC(=O)Oc1ccc2c(c1)CCC1C3CCC(=O)C3(C)CC(=O)C21O (stereo not given),247 to 248
7,Cc1nn(-c2c(Cl)cc(C(F)(F)F)cc2Cl)cc1S(C)(=O)=O,168 to 169
8,CN(CC(O)C(Cc1ccccc1)NC(=O)OC(C)(C)C)CC(O)C(Cc1ccccc1)NC(=O)OC(C)(C)C (stereo not given),62 to 70
9,CCNC(=O)/C=C(C)/C=C/C=C(C)/C=C/c1c(C)cc(OC(F)(F)F)c(C)c1C,198 to 200
10,COc1ccc(C(=O)NCCOc2cccc3c2OCCO3)c(OC)c1OC,128
11,COc1nc2cc(Cl)cc(Cl)c2cc1Br,135 to 138
12,COC1=CC(=O)[C@H](C(=O)O[C@@H]2C[C@H](C)CC[C@H]2C(C)C)[C@@H](C)C1,78 to 80
13,COc1ccc(CC(C(=O)O)S(C)(=O)=O)cc1C(=O)NCc1ccc(C(F)(F)F)cc1 (stereo not given),158 to 159
14,CCCOc1ccccc1-c1nc2[nH]c(=O)c(=O)[nH]c2c(=O)[nH]1,312 to 315
15,Cc1cc(N(C)[C@H]2CN(C(=O)CC#N)CC[C@H]2C)n2ncnc2n1,119
16,CC1(C)SC(=O)C2OC=C(Br)C=C21 (stereo not given),63 to 72
17,O=c1[nH]ncc2[nH]c(-c3ccc(OC(F)F)c(OCC4CC4)c3)cc12,294 to 295
18,COCOc1c(Cl)ccc(-c2cc(NC(C)=O)c(Cl)c(C(=O)OC)n2)c1F,146
19,CCOC(=O)c1cn(-c2cccnc2)cn1,102 to 103
20,CC(C)(C)P(=O)(CCC(=O)O)CCC(=O)O,174
21,O=C(Nc1nc2ccccc2s1)c1ccccc1C(c1ccc(O)cc1)c1ccc(O)cc1,140 to 141
22,O=c1[nH]c2scnc2c2c(O)cccc12,> 250

# Next, values leading:
row,melting point [°C],Compound
1,> 250,O=C(O)c1[nH]c2cc(Cl)cc(Cl)c2c1C=C1NC(=O)N(c2ccccc2)C1=O
2,225 to 227,COC(=O)C1=C(COCCn2c(C)nc(C)c2C)Nc2[nH]c(N)nc(=O)c2C1c1ccccc1Cl (stereo not given)
3,224 to 226,O=C(Nc1ccc(I)cc1)N[C@H]1C[C@H](C(=O)O)Nc2cc(Cl)cc(Cl)c21 (relative stereo)
4,144 to 146,Cc1cc(-n2c(C)nc3ccccc32)ccc1[N+](=O)[O-]
5,128,O=C(O)Cc1ccccc1N1CCOCC1
6,99 to 100,c1ccc(Sc2cc(-c3ccccc3)n[nH]2)cc1
7,110 to 112,Cc1cc(N)n(-c2ccc(Cl)c(Cl)c2)n1
8,77 to 83,COC(=O)/C(=C/c1cccc(C=O)c1)NC(=O)OCc1ccccc1
9,102 to 103,Cc1cccc2c1nc(COc1ccc(Cl)cc1)n2CCC(C)C(=O)NCCCN1CCCCC1 (stereo not given)
10,210,Fc1cccc(Cl)c1-c1c(Cl)cc(-n2cncn2)nc1Cl
11,115 to 116,CC(C)(C)OC(=O)NCc1cccc(OCCC2Oc3ccccc3N(Cc3ccccc3Cl)C2=O)c1 (stereo not given)
12,217 to 218,CCn1nc2c(N)nc3ccccc3c2c1C
13,94 to 95,CCOC(=O)c1c2ccc(Cl)cc2c(-c2ccccc2)n1C1=CCC(=O)C=C1
14,103 to 105,OCCCSc1nc2ccc(Cc3ccccc3)cc2[nH]1
15,97 to 99,OC1(c2ccccc2)CSC2=NCN(Cc3ccccc3)CN21 (stereo not given)
16,149,O=C(c1ccc(F)cc1)c1ccc(-c2ccccc2)cc1
17,117 to 118,CC(C)(O)Cc1ccc(NC(=O)OCc2ccccc2)cc1
18,162 to 164,COc1cc(NC(=O)Nc2ccc(Oc3ccncc3)cc2)cc(C(F)(F)F)c1
19,134 to 135,CON=C(c1nnco1)c1ccccc1COc1cc(C)ccc1C
20,190 to 192,Cc1ccc(-n2ncc(-c3ccc(S(C)(=O)=O)cc3)cc2=O)cc1
21,226,CCOC(=O)c1cn(C)c2cnc3cc(F)c(N4CCN(c5cccc(OC)c5)C(C)C4)cc3c2c1=O (stereo not given)
22,190 to 192,CS(=O)(=O)c1cc(-c2nc(=O)c3ccccc3s2)ccn1
23,200 to 202,Nc1nc(Nc2ccc3c(c2)OCO3)sc1C(=O)c1ccccc1[N+](=O)[O-]
24,199 to 200,O=C(NCc1ccc(F)cc1)c1nc2n(c(=O)c1OCc1ccccc1)CCN2c1ccccc1
25,205 to 206,Cc1cccc2ncc(C(=O)NCc3ccc(Cl)cc3)c(O)c12
26,197 to 198,O=Cc1c2ccccc2c(C=O)c2c1ccc1ccccc12
27,218 to 219,COc1ccc(-c2ccc(C=CC(=O)O)s2)cc1C(C)(C)C
28,236,CC(C)(C)Nc1c(NCc2cc(Cl)ccc2Cl)c(=O)c1=O

row,melting point [°C],Compound
1,324 to 327,O=C1NC(=O)c2c1cc1ccc3c(c1c2-c1ccc(Br)cc1)OCO3
2,> 300,O=c1ccc2c(-n3cccn3)nccc2[nH]1
3,178 to 180,CCOC(=O)c1ccc(NC(=O)C=C2c3ccccc3CCc3ccccc32)cc1
4,182,CCCCc1ncc(C=O)n1Cc1ccc(C(=O)O)c2ccccc12
5,105 to 106,"Cc1ccccc1Sc1ccc2c(c1)CCC1N(C)C(=O)CCC21C (single isomer, unassigned; (+))"
6,115 to 116,Clc1ccc(CCC(Cn2ccnc2)OCC=Cc2ccccc2)cc1 (stereo not given)
7,191 to 193,CC(Br)C(=O)c1ccc2oc(=O)[nH]c2c1 (stereo not given)
8,210,O=C1CNC(=O)C(CCCCNC(=O)OCc2ccccc2)N1 (stereo not given)
9,145 to 150,O=C(O)CN1CCCC(n2nc(-c3c(-c4ccccc4)nn4ccccc34)ccc2=O)C1=O (stereo not given)
10,147 to 148,Fc1ccc2[nH]cc(CCCCN3CCN(c4cccc(Cl)c4Cl)CC3)c2c1
11,101 to 103,COc1ccc(-n2nc(C(O)c3ccccc3)cc2-c2ccc(C)cc2)cc1 (stereo not given)
12,193 to 194,Cc1c(Cc2cccc(C(F)(F)F)c2)sc2c(-c3cc(C(N)=O)ccn3)cccc12
13,157,COc1cc(-c2nc3ccccc3n2Cc2c(Cl)cccc2Cl)cc(OC)c1OC
14,139 to 142,O=C(Nc1ccccc1)Oc1ccc(N=C=S)cc1
15,152,NC1=NC(c2ccccc2)(c2cccc(Cc3ccc(F)cc3)c2)C2=NCCCN12 (stereo not given)
16,124 to 125,O=C1C=C(c2cccc(C(F)(F)F)c2)CO1
17,87 to 88,COc1ccc(C(=O)Cc2ccccc2)c(O)c1
18,130 to 131,COC(=O)C1=Cc2ccc(OCc3nc(-c4ccccc4)oc3C)cc2CC1
19,148,CC1(C)NC(=O)C2CN(CCCC(c3ccc(F)cc3)c3ccc(F)cc3)CCN21 (stereo not given)
20,238 to 240,O=C(Nc1cccnc1)c1c(OCC2CC2)ccc2oc3ccccc3c12
21,97 to 99,CCCCCC(=O)Nc1ccc2ccn(CCCCCCC(=O)NS(=O)(=O)c3ccccc3)c2c1
22,150 to 152,COC(=O)C1Cc2c([nH]c3ccccc23)CN1C(=S)Sc1cccs1 (stereo not given)
23,112,CN(C(=O)C1CCn2cccc21)c1ccccc1 (stereo not given)
24,41 to 43,O=C(NCCSCc1cccc(Cl)c1)c1c(F)cccc1F
25,145 to 147,CCC(=N)c1c(O)cc(-c2ccccc2)n(C)c1=O
26,136,COC(=O)c1c(N)[nH]c2ccccc12
27,164,CN1[C@@H](c2cccc(Cl)c2)c2ccccc2S1(=O)=O
